The compounds below were run on HBeAg level in HepDES19 cells (surrogate marker for cccDNA) (assay: Engineered HepDES19 primary screen assay (HBeAg as surrogate marker for cccDNA)). Settings: Hepatitis B virus, HepDES19, 120 h, read-out: IC50 (HBeAg level, HepDES19 primary screen assay).
Type: cell-based, HBV
Text: The assay was employed to screen for novel cccDNA inhibitors. HepDES19 is a cccDNA-producing cell line. In this cell line, HBeAg in the cell culture supernatant as surrogate marker, as HBeAg production depends on cccDNA level and activity. HepDES19 is an engineered cell line which contains a 1.1 unit length HBV genome, and pgRNA transcription from the transgene is controlled by Tetracycline (Tet). In the absence of Tet, pgRNA transcription will be induced, but HBV e antigen (HBeAg) could not be produced from this pgRNA due to very short leader sequence before the HBeAg start codon and the start codon is disrupted. Only after cccDNA is formed, the missing leader sequence and start codon mutation would be restored from the 3′-terminal redundancy of pgRNA, and then HBeAg could be synthesized. Therefore, HBeAg could be used as a surrogate marker for cccDNA (Zhou, T. et al., Antiviral Res. (2006), 72(2), 116-124; Guo, H. et al., J. Virol. (2007), 81(22), 12472-12484).
HepDES19 cells were seeded at 2×10^6 cells per T150 flask and cultured with the culture medium (Dulbecco's Modified Eagle Medium: Nutrient Mixture F-12 [DMEM-F12, Gibco Cat. 11320-82], 10% Fetal Bovine Serum [FBS, Clontech Cat. 631101], 0.1 mM Non-Essential Amino Acids Solution [NEAA, Gibco Cat. 11140-050], 50 μg/mL Penicillin-Streptomycin [PS, Invitrogen Cat. 15140-163], 500 μg/mL Geneticin [G418, Invitrogen Cat. 10131-027]) containing 3 μg/mL Tet (Sigma, Cat. 87128) for 5 days. Cells were then seeded at 4×10^6 cells per T150 in the same culture medium as described above in the absence of Tet for 8 days. Cells were then harvested and frozen at density of 2×10^6 cells per mL. For compound testing, the frozen cells were thawed and seeded into 96-well plates at a density of 6×10^4 cells per well. At 24 hours after seeding, half log serial dilutions of compounds made with Dimethyl sulfoxide (DMSO, Sigma, Cat. D2650) were further diluted with the same culture medium as described above before they were added to the cells to reach desired final compound concentrations and 1% DMSO concentration. Plates were then incubated at 37° C. for another 5 days before measurement of HBeAg level and cell viability. Intracellular HBeAg level were measured with enzyme-linked immunosorbent assay (ELISA) kit (Shanghai Kehua Diagnostic Medical Products Co., Ltd). Cell viability was assessed using Cell Counting Kit-8 (Donjindo, Cat. CK04-20). IC50 values were derived from the dose-response curve using 4 parameter logistic curve fit method.
The compounds of the present invention were tested for their capacity to inhibit extracellular HBeAg level as described herein.

Row | SMILES | IC50 [µM]
1 | O=c1c2c(oc3c(Cl)cccc13)CN(Cc1ccccc1)CC2 [Example 2, 2-benzyl-9-chloro-3,4-dihydro-1H-chromeno[2,3-c]pyridin-5(2H)-one] | 49.8
2 | COC(=O)c1cccc(CN2CCc3c(oc4c(Cl)cccc4c3=O)C2)c1 [Example 3, methyl 3-((9-chloro-5-oxo-3,4-dihydro-1H-chromeno[2,3-c]pyridin-2(5H)-yl)methyl)benzoate] | 30.7
3 | O=C(c1ccccc1F)N1CCc2c(oc3c(Cl)cccc3c2=O)C1 [Example 4, 9-chloro-2-(2-fluorobenzoyl)-3,4-dihydro-1H-chromeno[2,3-c]pyridin-5-one] | 23.4
4 | COc1ccc(CN2CCc3c(oc4c(Cl)cccc4c3=O)C2=O)cc1 [Example 5, 9-chloro-2-[(4-methoxyphenyl)methyl]-3,4-dihydrochromeno[2,3-c]pyridine-1,5-dione] | 26
5 | O=C(c1nccc2ccccc12)N1CCc2c(oc3c(Cl)cccc3c2=O)C1 [Example 6, 9-chloro-2-(isoquinoline-1-carbonyl)-3,4-dihydro-1H-chromeno[2,3-c]pyridin-5(2H)-one] | 21.6
6 | O=C(Nc1ccccc1F)N1CCc2c(oc3c(Cl)cccc3c2=O)C1 [Example 7, 9-chloro-N-(2-fluorophenyl)-5-oxo-3,4-dihydro-1H-chromeno[2,3-c]pyridine-2(5H)-carboxamide] | 39.8
7 | COC(=O)c1cccc(N2CCc3c(oc4c(Cl)cccc4c3=O)C2=O)c1 [Example 8, methyl 3-(9-chloro-1,5-dioxo-3,4-dihydro-1H-chromeno[2,3-c]pyridin-2(5H)-yl)benzoate] | 0.23
8 | COC(=O)c1ccc(N2CCc3c(oc4c(Cl)cccc4c3=O)C2=O)cc1 [Example 10, methyl 4-(9-chloro-1,5-dioxo-3,4-dihydro-1H-chromeno[2,3-c]pyridin-2(5H)-yl)benzoate] | 7.78
9 | O=C(O)C1CC(Oc2ccc(N3CCc4c(oc5c(Cl)cccc5c4=O)C3=O)cc2)C1 (stereo not shown) [Example 11, 3-(4-(9-chloro-1,5-dioxo-3,4-dihydro-1H-chromeno[2,3-c]pyridin-2(5H)-yl)phenoxy)cyclobutanecarboxylic Acid] | 19
10 | COC(=O)c1ccc(N2CCc3c(oc4c(Cl)cccc4c3=O)C2)nc1 [Example 13, methyl 6-(9-chloro-5-oxo-3,4-dihydro-1H-chromeno[2,3-c]pyridin-2(5H)-yl)nicotinate] | 41.6
11 | O=C1c2oc3c(Cl)cccc3c(=O)c2CCN1c1ccc(Br)cc1 [Example 15, 2-(4-bromophenyl)-9-chloro-3,4-dihydro-2H-chromeno[2,3-c]pyridine-1,5-dione] | 10.5
12 | O=C1c2oc3c(Cl)cccc3c(=O)c2CCN1c1cccc(OC(F)(F)F)c1 [Example 21, 9-chloro-2-(3-(trifluoromethoxy)phenyl)-3,4-dihydro-2H-chromeno[2,3-c]pyridine-1,5-dione] | 47.5
13 | COC(=O)c1cc(N2CCc3c(oc4c(Cl)cccc4c3=O)C2=O)ccc1Cl [Example 24, methyl 2-chloro-5-(9-chloro-1,5-dioxo-1,3,4,5-tetrahydro-2H-chromeno[2,3-c]pyridin-2-yl)benzoate] | 46.1
14 | N#Cc1ccc(N2CCc3c(oc4c(Cl)cccc4c3=O)C2=O)cc1 [Example 30, 4-(9-chloro-1,5-dioxo-1,3,4,5-tetrahydro-2H-chromeno[2,3-c]pyridin-2-yl)benzonitrile] | 32.5
15 | Cc1ccc(C)c(N2CCc3c(oc4c(Cl)cccc4c3=O)C2=O)c1 [Example 31, 9-chloro-2-(2,5-dimethylphenyl)-3,4-dihydro-2H-chromeno[2,3-c]pyridine-1,5-dione] | 7.13
16 | O=C1c2oc3c(Cl)cccc3c(=O)c2CCN1c1ccc(OC(F)(F)F)cc1Cl [Example 32, 9-chloro-2-(2-chloro-4-(trifluoromethoxy)phenyl)-3,4-dihydro-2H-chromeno[2,3-c]pyridine-1,5-dione] | 10.8

Row | SMILES | IC50 [µM]
17 | O=C1c2oc3c(Cl)cccc3c(=O)c2CCN1c1ccc(OC(F)(F)F)cc1 [Example 33, 9-chloro-2-(4-(trifluoromethoxy)phenyl)-3,4-dihydro-2H-chromeno[2,3-c]pyridine-1,5-dione] | 1.84
18 | Cc1ccc(N2CCc3c(oc4c(Cl)cccc4c3=O)C2=O)cc1 [Example 34, 9-chloro-2-(p-tolyl)-3,4-dihydro-2H-chromeno[2,3-c]pyridine-1,5-dione] | 6.01
19 | COC(=O)c1cc(Cl)ccc1N1CCc2c(oc3c(Cl)cccc3c2=O)C1=O [Example 36, methyl 5-chloro-2-(9-chloro-1,5-dioxo-1,3,4,5-tetrahydro-2H-chromeno[2,3-c]pyridin-2-yl)benzoate] | 21.6
20 | N#Cc1cc(Cl)ccc1N1CCc2c(oc3c(Cl)cccc3c2=O)C1=O [Example 37, 5-chloro-2-(9-chloro-1,5-dioxo-1,3,4,5-tetrahydro-2H-chromeno[2,3-c]pyridin-2-yl)benzonitrile] | 12.2
21 | Cc1cc(Cl)ccc1N1CCc2c(oc3c(Cl)cccc3c2=O)C1=O [Example 38, 9-chloro-2-(4-chloro-2-methylphenyl)-3,4-dihydro-2H-chromeno[2,3-c]pyridine-1,5-dione] | 2.12
22 | O=c1c2c(oc3c(Cl)cccc13)CN(c1ccc(Cl)cc1)CC2 [Example 42, 9-chloro-2-(4-chlorophenyl)-1,2,3,4-tetrahydro-5H-chromeno[2,3-c]pyridin-5-one] | 4.26
23 | O=C1c2oc3c(Cl)cccc3c(=O)c2CCN1c1ncc(Cl)cc1C(F)(F)F [Example 43, 9-chloro-2-(5-chloro-3-(trifluoromethyl)pyridin-2-yl)-3,4-dihydro-2H-chromeno[2,3-c]pyridine-1,5-dione] | 30.1
24 | O=C1c2oc3c(Cl)cccc3c(=O)c2CCN1c1ccc(Cl)cc1Br [Example 44, 2-(2-bromo-4-chlorophenyl)-9-chloro-3,4-dihydro-2H-chromeno[2,3-c]pyridine-1,5-dione] | 6.22
25 | COc1ccc(COc2cc(Cl)cnc2N2CCc3c(oc4c(Cl)cccc4c3=O)C2=O)cc1 [Example 45, 9-chloro-2-(5-chloro-3-((4-methoxybenzyl)oxy)pyridin-2-yl)-3,4-dihydro-2H-chromeno[2,3-c]pyridine-1,5-dione] | 6.24
26 | COCOc1cc(Cl)ccc1N1CCc2c(oc3c(Cl)cccc3c2=O)C1=O [Example 46, 9-chloro-2-(4-chloro-2-(methoxymethoxy)phenyl)-3,4-dihydro-2H-chromeno[2,3-c]pyridine-1,5-dione] | 9.84
27 | O=C(c1cc(Cl)ccc1N1CCc2c(oc3c(Cl)cccc3c2=O)C1=O)N1CCCC1 [Example 47, 9-chloro-2-(4-chloro-2-(pyrrolidine-1-carbonyl)phenyl)-3,4-dihydro-2H-chromeno[2,3-c]pyridine-1,5-dione] | 3.29
28 | CCOc1cc(Cl)ccc1N1CCc2c(oc3c(Cl)cccc3c2=O)C1=O [Example 48, 9-chloro-2-(4-chloro-2-ethoxyphenyl)-3,4-dihydro-2H-chromeno[2,3-c]pyridine-1,5-dione] | 6.9
29 | O=c1c2c(oc3c(Cl)cccc13)CN(c1ccc(Cl)c(Cl)c1)CC2 [Example 49, 9-chloro-2-(3,4-dichlorophenyl)-1,2,3,4-tetrahydro-5H-chromeno[2,3-c]pyridin-5-one] | 40.1
30 | COCc1cc(Cl)ccc1N1CCc2c(oc3c(Cl)cccc3c2=O)C1=O [Example 50, 9-chloro-2-(4-chloro-2-(methoxymethyl)phenyl)-3,4-dihydro-2H-chromeno[2,3-c]pyridine-1,5-dione] | 26.4
31 | COc1ccc(N2Cc3c(oc4c(Cl)cccc4c3=O)C2=O)cc1 [Example 52, 5-chloro-2-(4-methoxyphenyl)-1H-chromeno[2,3-c]pyrrole-3,9-dione] | 37.7
